{"source": "patent US20070219224A1", "about": "“Compositions and Methods Relating to Pyrimidine Synthesis Inhibitors” (UAB RESEARCH FOUNDATION, THE, priority 2004, published 2007)", "key": {"[1]": {"format": "in vivo", "conditions": "for body weight loss after RSV infection: D1 and d2 p.i., versus untreated RSV-infected mice", "protocol": "(§1) Preparation of viral inocula and infection of mice. Preparation of viral stocks and intranasal infection of eight to twelve week-old pathogen-free BALB/c mice of either sex with RSV strain A2 (10^6 PFU in 100 μl) were performed as described in Davis et al., “Nucleotide-mediated inhibition of alveolar fluid clearance in BALB/c mice after respiratory syncytial virus infection,” Am. J. Physiol. Lung Cell Mol. Physiol. 286:L112-L120. (2004). Data for each experimental group was derived from a minimum of 2 independent infections.\n(§2) Systemic inhibition of de novo pyrimidine and purine synthesis. Leflunomide (5-methylisoxazole-4-[4-trifluoromethyl]carboxanilide, 35 mg/kg in distilled water containing 1% methylcellulose) was administered once daily by oral gavage in a volume of 300 μl/mouse for 8 days prior to infection, then throughout the infection period. Vehicle controls were gavaged with an equivalent volume of 1% methylcellulose in distilled water. […]"}, "[2]": {"test_system": "IFN-α, IL-1β, KC, TNF-α in BALF", "test": "Measurement of proinflammatory cytokines in BALF (ELISA)", "format": "in vivo, BALB/c mice", "conditions": "RSV-infected mice, d2", "protocol": "as §1\n(§3) Bronchoalveolar lavage. Bronchoalveolar lavage fluid (BALF) was collected as previously described in Davis et al., (2004), using 1 ml of sterile normal saline for cytokine ELISAs, or 0.3 ml of sterile saline for nucleotide assays. Lavagates were centrifuged to remove cells and supernatants stored at −80° C.\nSystemic inhibition of de novo pyrimidine and purine synthesis. Leflunomide (5-methylisoxazole-4-[4-trifluoromethyl]carboxanilide, 35 mg/kg in distilled water containing 1% methylcellulose) was administered once daily by oral gavage in a volume of 300 μl/mouse for 8 days prior to infection, then throughout the infection period. Vehicle controls were gavaged with an equivalent volume of 1% methylcellulose in distilled water. […].\nMeasurement of proinflammatory cytokines in BALF. Cytokine levels were determined using Quantikine M ELISA kits (R & D Systems), in accordance with manufacturer's instructions."}, "RSV-infected BALB/c mice [3]": {"test_system": "RSV-infected BALB/c mice", "test": "Mean peripheral blood oxygen saturation (SmO2), pulse oximetry", "format": "in vivo", "conditions": "d2", "protocol": "Measurement of mean peripheral blood oxygen saturation. Peripheral blood oxygen saturation was measured in conscious mice, using a PREEMIE OXYTIP® sensor (Datex-Olmeda, hic., Madison, Wis.), connected to a TUFFSAT™ pulse oximeter (Datex-Ohmeda, Inc., Madison, Wis.). Because of the extremely rapid pulse rate of the mouse, oximetry values are mean hemoglobin O2 saturation (SmO2) values from arterial and venous blood.\n(§4) Systemic inhibition of de novo pyrimidine and purine synthesis. Leflunomide (5-methylisoxazole-4-[4-trifluoromethyl]carboxanilide, 35 mg/kg in distilled water containing 1% methylcellulose) was administered once daily by oral gavage in a volume of 300 μl/mouse for 8 days prior to infection, then throughout the infection period. Vehicle controls were gavaged with an equivalent volume of 1% methylcellulose in distilled water. Uridine (1 g/kg in 0.9% NaCl) was administered by i.p. injection every 12 hours in a volume of 100 μl (8). 6-MP (35 mg/kg in 1N NaOH, pH adjusted to 7.9 with 2 M Na2HPO4) was administered by i.p. injection every 24 hours in a volume of 100 μl, for 5 days prior to infection, then throughout the infection period."}, "UTP/ATP content of BALF": {"test_system": "UTP/ATP content of BALF", "test": "Measurement of nucleotides (UTP/ATP content) in BALF of RSV-infected mice", "format": "in vivo, BALB/c mice", "protocol": "as §1, §3\nMeasurement of nucleotides in BALF. Endogenous nucleotidases in BALF were heat denatured (100° C., 3 minutes) and UTP/ATP content measured using the […] and luciferine-luciferase assays, respectively.\nas §2"}, "RSV strain A2": {"test_system": "RSV strain A2", "test": "RSV replication in mouse lungs", "format": "in vivo, Respiratory syncytial virus", "conditions": "for virus replication in lung tissue at d2: RSV-infected mice, day 2 p.i., systemic treatment", "protocol": "as §1, §2"}, "RSV-infected BALB/c mice [4]": {"test_system": "RSV-infected BALB/c mice", "test": "Heart rate change with ventilation (% ΔHR30), ECG", "format": "in vivo", "conditions": "RSV-infected mice during AFC procedures, d2", "protocol": "Measurement of heart rate changes with ventilation. ECG tracings were used to measure heart rate (number of QRS complexes/cm) at the start (HRSTART) and end (HREND) of the AFC assay. The % change in rate over the 30-minute ventilation period (% ΔHR30) was calculated as (HRSTART−HREND)/HRSTART.\nas §4"}, "RSV-infected BALB/c mice [5]": {"test_system": "RSV-infected BALB/c mice", "test": "Nasal potential difference (NPD, NPDAMIL)", "format": "in vivo", "conditions": "leflunomide throughout the infection period", "protocol": "Measurement of nasal potential difference. The potential difference across the nares of anesthetized mice (with the tail as reference) was measured as previously described Grubb et al., (1994) “Hyperabsorption of Na+ and raised Ca(2+)-mediated Cl-secretion in nasal epithelia of CF mice,” Am. J. Physiol 266:C1478-C1483. A baseline NPD was recorded during perfusion of the nasal epithelium with lactated Ringer's solution. The amiloride-sensitive component of NPD (NPDAMIL) was determined by perfusion with lactated Ringer's solution containing 100 μM amiloride. Current pulses of ±60 nA were applied across the epithelium by a 12V battery in series with a 200 MΩ resistor. Changes in NPD in response to the current pulses (proportional to nasal transepithelial resistance, NRte) were recorded (ΔNPD).\nSystemic inhibition of de novo pyrimidine and purine synthesis. Leflunomide (5-methylisoxazole-4-[4-trifluoromethyl]carboxanilide, 35 mg/kg in distilled water containing 1% methylcellulose) was administered once daily by oral gavage in a volume of 300 μl/mouse for 8 days prior to infection, then throughout the infection period. Vehicle controls were gavaged with an equivalent volume of 1% methylcellulose in distilled water. Uridine (1 g/kg in 0.9% NaCl) was administered by i.p. injection every 12 hours in a volume of 100 μl (8). […]"}, "uninfected BALB/c mice": {"test_system": "uninfected BALB/c mice", "test": "Alveolar fluid clearance (AFC) in uninfected or mock-infected mice", "format": "in vivo", "conditions": "for effect on AFC in uninfected / normal (mock-infected) mice (in words): leflunomide oral gavage", "protocol": "Systemic inhibition of de novo pyrimidine and purine synthesis. […] Vehicle controls were gavaged with an equivalent volume of 1% methylcellulose in distilled water. Uridine (1 g/kg in 0.9% NaCl) was administered by i.p. injection every 12 hours in a volume of 100 μl (8). […]\nAFC studies were performed on anesthetized, ventilated BALB/c mice with normal body temperature and blood gases, over a 30 minute period after intratracheal instillation of 0.3 ml of isosmolar NaCl containing 5% fatty acid-free BSA. The number of mice analyzed per group is listed in the relevant bar of each graph."}, "RSV-infected BALB/c mice [6]": {"test_system": "RSV-infected BALB/c mice", "test": "Lung water content (wet:dry weight ratio) after RSV infection", "format": "in vivo", "conditions": "day 2, systemic treatment", "protocol": "as §1, §2"}, "[7]": {"conditions": "d2, leflunomide 35 mg/kg oral gavage once daily, uridine 1 g/kg i.p. every 12 hours"}}, "note": "“Also recorded” adds a separate entry of the source. Where two headings read alike, the source gives them in different places. Marks after values point to notes of the source that are not given here."}
{"smiles": "Cc1oncc1C(=O)Nc1ccc(C(F)(F)F)cc1", "note": "[Leflunomide, 5-methylisoxazole-4-[4-trifluoromethyl]carboxanilide]", "values": [{"measurement": "body weight loss after RSV infection", "setting": "[1]", "result": "significantly reduced the degree of weight loss"}, {"measurement": "body weight loss after RSV infection", "setting": "[1]; listed as LEF", "result": "significant reduction in weight loss"}, {"measurement": "body weight loss after RSV infection", "setting": "[1]; listed as leflunomide", "result": "significantly reduced the degree of weight loss"}, {"measurement": "body weight during the pretreatment (preinfection) period", "setting": "[1]; before RSV infection, leflunomide 8 days, 6-MP 5 days", "result": "no significant decline in body weight"}, {"measurement": "toxicity (inferred from body weight)", "setting": "[1]; mouse, in vivo", "result": "very limited leflunomide toxicity"}, {"measurement": "BALF proinflammatory cytokine levels (IFN-α, IL-1β, KC, TNF-α) (in words)", "setting": "[2]", "result": "significantly reduced"}, {"measurement": "BALF proinflammatory cytokine levels (IFN-α, IL-1β, KC, TNF-α) (in words)", "setting": "[2]; listed as LEF", "result": "significant reduction"}, {"measurement": "IFN-α, mean cytokine concentration in BALF ± SE", "setting": "[2]; systemic treatment", "result": "72 ± 12", "unit": "pg/mL"}, {"measurement": "IL-1β, mean cytokine concentration in BALF ± SE", "setting": "[2]; systemic treatment", "result": "20 ± 8", "unit": "pg/mL"}, {"measurement": "KC, mean cytokine concentration in BALF ± SE", "setting": "[2]; systemic treatment", "result": "425 ± 58", "unit": "pg/mL"}, {"measurement": "TNF-α, mean cytokine concentration in BALF ± SE", "setting": "[2]; systemic treatment", "result": "0*** pg/ml"}, {"measurement": "SmO2 (mean blood O2 saturation)", "setting": "RSV-infected BALB/c mice [3]", "result": "improved mean blood O2 saturation; also recorded: normalization of SmO2 readings"}, {"measurement": "effect on BALF nucleotide (UTP, ATP) levels (in words)", "setting": "UTP/ATP content of BALF; d2", "result": "No increase in BALF nucleotide levels was detected; also recorded: reduced BALF content of both nucleotides to levels below those in untreated, uninfected mice"}, {"measurement": "ATP, mean nucleotide concentration in BALF ± SE", "setting": "UTP/ATP content of BALF; [7]", "result": "6 ± 1", "unit": "nmol/L"}, {"measurement": "UTP, mean nucleotide concentration in BALF ± SE", "setting": "UTP/ATP content of BALF; [7]", "result": "5 ± 2", "unit": "nmol/L"}, {"measurement": "virus replication in lung tissue at d2", "setting": "RSV strain A2", "result": "unaffected"}, {"measurement": "virus replication in lung tissue at d2", "setting": "RSV strain A2; listed as LEF", "result": "no effect on virus replication"}, {"measurement": "virus replication at d8, treatment continued", "setting": "RSV strain A2; leflunomide continued throughout the 8 day infection period", "result": "persisted at high levels"}, {"measurement": "virus replication at d8, treatment discontinued", "setting": "RSV strain A2; leflunomide discontinued after d2", "result": "only minimally increased"}, {"measurement": "% ΔHR30", "setting": "RSV-infected BALB/c mice [4]", "result": "prevented the increase in % ΔHR30"}, {"measurement": "basal NPD and NPDAMIL", "setting": "RSV-infected BALB/c mice [5]", "result": "completely prevented RSV-induced declines in basal NPD and NPDAMIL"}, {"measurement": "effect on AFC in uninfected / normal (mock-infected) mice (in words)", "setting": "uninfected BALB/c mice", "result": "no detrimental effect on AFC"}, {"measurement": "effect on AFC in uninfected / normal (mock-infected) mice (in words)", "setting": "uninfected BALB/c mice; listed as LEF", "result": "no effect on AFC"}, {"measurement": "effect on AFC in uninfected / normal (mock-infected) mice (in words)", "setting": "uninfected BALB/c mice; listed as leflunomide", "result": "significant inhibition of AFC"}, {"measurement": "AFC30BASAL (mean % basal AFC after 30 minutes ± SE)", "setting": "uninfected BALB/c mice; mock-infected mice, leflunomide 5 mg/kg oral gavage once daily", "result": "33.16 ± 2.40", "unit": "%"}, {"measurement": "AFC (mean % AFC ± SE)", "setting": "uninfected BALB/c mice; uninfected mice, leflunomide-treated", "result": "29.98 ± 1.5", "unit": "%"}, {"measurement": "lung water content (wet:dry weight ratio) (in words)", "setting": "RSV-infected BALB/c mice [6]", "result": "normalization of lung wet:dry weight ratios"}, {"measurement": "lung water content (wet:dry weight ratio) (in words)", "setting": "RSV-infected BALB/c mice [6]; listed as LEF", "result": "reverses RSV-induced increased in lung water content"}, {"measurement": "lung water content (wet:dry weight ratio) (in words)", "setting": "RSV-infected BALB/c mice [6]; listed as leflunomide", "result": "restored normal lung wet:dry weight ratios"}]}
